The target in one test is T1, wild type HIV-1 protease (Q7K) (Human immunodeficiency virus type 1 group M subtype B, UniProt P04585, Q495K).
T1 construct: Wide type HIV-1 protease (Q7K)
The test can be described thus: FRET HIV-1 protease inhibition assay, wild type. It counts as biochemical.
Details: not given
Here is the method:
Biological Evaluation of Selected Compounds of the Invention. HIV protease inhibitor activities were determined by fluorescence resonance energy transfer (FRET) method. […] Inhibitor binding dissociation constant (Ki value) was obtained by nonlinear regression fitting to the plot of initial velocity as a function of inhibitor concentration based on Morrison equation.
The energy transfer donor (EDANS) and acceptor (DABCYL) were labeled at its two ends respectively to perform FRET. Fluorescence measurements were carried out on PTI fluorescence spectrophotometer (Photon Technology International) at 30° C. Excitation and emission wavelengths were set at 340 nm and 490 nm, respectively. Each reaction was recorded for about 10 min. Wide type HIV-1 protease (Q7K) and its MDR mutants M1 (L10I, G48V, I54V, L63P, V82A), M2 (D30N, L63P, N88D), and M3 (L10I, L63P, A71V, G73S, I84V, L90M) were desalted through PD-10 columns (Amersham Biosciences). Sodium Acetate (20 mM, pH 5) was used as elution buffer. Apparent protease concentrations were around 50 nM estimated by UV spectrophotometer (Shimadzu) at 280 nm. All inhibitors were dissolved in DMSO and diluted to appropriate concentrations. Protease (2 μL) and inhibitor (2 μL) or DMSO were mixed and incubated for 20-30 min at room temperature before initialing substrate cleavage reaction. Throughout this work, 150 μL of 1 μM substrate was used. Substrate buffer is composite of 0.1 M sodium acetate, 1 M sodium chloride, 1 mM ethylenediaminetetraacetic acid (EDTA), 1 mM dithiothreitol (DTT), 2% dimethylsulfoxide (DMSO) and 1 mg/mL bovine serum albumin (BSA) with an adjusted pH 4.7. Inhibitor binding dissociation constant (Ki) was obtained by nonlinear regression fitting (GraFit 5, Erithacus software) to the plot of initial velocity as a function of inhibitor concentrations based on Morrison equation.
As for `COc1ccc(S(=O)(=O)N(CC(C)C)C[C@@H](O)[C@H](Cc2ccccc2)NC(=O)[C@@H]2CN(c3cccc(OC)c3)C(=O)O2)cc1` [21g, (5S)—N-[(1S,2R)-1-Benzyl-2-hydroxy-3-[isobutyl[(4-methoxyphenyl)sulfonyl]-amino]propyl]-3-(3-methoxyphenyl)-2-oxo-oxazolidine-S-carboxamide], the inhibitory constant (Ki) was 0.045 nM.

As to `CC(=O)c1cccc(N2C[C@@H](C(=O)N[C@@H](Cc3ccccc3)[C@H](O)CN(CC(C)C)S(=O)(=O)c3ccc(N)cc3)OC2=O)c1` [25e, (5S)-3-(3-Acetylphenyl)-N-[(1S,2R)-3-[[(4-aminophenyl)sulfonyl](isobutyl)amino]-1-benzyl-2-hydroxypropyl]-2-oxo-oxazolidine-S-carboxamide], the Ki is 0.032 nM.

For `CC(=O)c1cccc(N2C[C@@H](C(=O)N[C@@H](Cc3ccccc3)[C@H](O)CN(CC(C)C)S(=O)(=O)c3ccc4c(c3)OCO4)OC2=O)c1` [26e, (5S)-3-(3-Acetylphenyl)-N-[(1S,2R)-3-[[(benzo-[1,3]-dioxole-5-sulfonyl)](isobutyl)amino]-1-benzyl-2-hydroxypropyl]-2-oxo-oxazolidine-S-carboxamide], the affinity, expressed as Ki, was 0.006 nM.

Take `COc1ccc(S(=O)(=O)N(CC(C)C)C[C@@H](O)[C@H](Cc2ccccc2)NC(=O)[C@H]2CN(c3ccccc3)C(=O)O2)cc1` [20a, (5R)—N-[(1S,2R)-1-Benzyl-2-hydroxy-3-[isobutyl[(4-methoxyphenyl)sulfonyl]amino]-propyl]-2-oxo-3-phenyloxazolidine-S-carboxamide]: the Ki is 10.7 nM.

Consider `COc1ccc(S(=O)(=O)N(CC(C)C)C[C@@H](O)[C@H](Cc2ccccc2)NC(=O)[C@@H]2CN(c3cccc(C(F)(F)F)c3)C(=O)O2)cc1` [21d, (5S)—N-[(1S,2R)-1-Benzyl-2-hydroxy-3-[isobutyl[(4-methoxyphenyl)sulfonyl]amino]-propyl]-2-oxo-3-[(3-trifluoromethyl)phenyl]oxazolidine-S-carboxamide], for which the Ki was determined as 0.006 nM.

Staying with this test, now noted: cyclopropylmethyl at P1' vs isobutyl analog, wild type.
On to `COc1cccc(S(=O)(=O)N(CC2CC2)C[C@@H](O)[C@H](Cc2ccccc2)NC(=O)[C@@H]2CN(c3ccc(F)c(F)c3)C(=O)O2)c1` [36c, (5S)—N-[(1S,2R)-1-Benzyl-3-[(cyclopropylmethyl)[(3-methoxyphenyl)sulfonyl]amino]-2-hydroxypropyl]-3-(3,4-difluorophenyl)-2-oxo-oxazolidine-S-carboxamide], for which the “fold higher Ki than the corresponding inhibitor with isobutyl group at P1'” value was roughly 9 fold.

Take `COc1cccc(S(=O)(=O)N(CC2CC2)C[C@@H](O)[C@H](Cc2ccccc2)NC(=O)[C@@H]2CN(c3cccc(F)c3)C(=O)O2)c1` [36b, (5S)—N-[(1S,2R)-1-Benzyl-3-[(cyclopropylmethyl)[(3-methoxyphenyl)sulfonyl]amino]-2-hydroxypropyl]-3-(3-fluorophenyl)-2-oxo-oxazolidine-S-carboxamide]: the “fold higher Ki than the corresponding inhibitor with isobutyl group at P1'” value is listed as “about 3 fold”.

The same test, now with this note: wild type HIV-1 protease (Q7K), FRET, in triplicate; read-out: Ki.
As to `COc1cccc(S(=O)(=O)N(CC2CC2)C[C@@H](O)[C@H](Cc2ccccc2)NC(=O)[C@@H]2CN(c3ccc(F)c(F)c3)C(=O)O2)c1` [36c, (5S)—N-[(1S,2R)-1-Benzyl-3-[(cyclopropylmethyl)[(3-methoxyphenyl)sulfonyl]amino]-2-hydroxypropyl]-3-(3,4-difluorophenyl)-2-oxo-oxazolidine-S-carboxamide], the Ki amounted to 0.58 nM.

Take `COc1ccc(S(=O)(=O)N(CC(C)C)C[C@@H](O)[C@H](Cc2ccccc2)NC(=O)[C@@H]2CN(c3ccc(F)c(F)c3)C(=O)O2)cc1` [21c, (5S)—N-[(1S,2R)-1-Benzyl-2-hydroxy-3-[isobutyl[(4-methoxyphenyl)sulfonyl]amino]-propyl]-3-(3,4-difluorophenyl)-2-oxo-oxazolidinone-S-carboxamide]: the Ki was 0.066 nM.

Turning to `COc1ccc(S(=O)(=O)N(CC(C)C)C[C@@H](O)[C@H](Cc2ccccc2)NC(=O)[C@@H]2CN(c3ccc(F)c(F)c3)C(=O)O2)cc1F` [27c, (5S)—N-[(1S,2R)-1-Benzyl-3-[[(3-fluoro-4-methoxyphenyl)sulfonyl](isobutyl)amino]-2-hydroxypropyl]-3-(3,4-difluorophenyl)-2-oxo-oxazolidine-S-carboxamide], the Ki came out at 0.343 nM.

For the molecule `COc1cccc(S(=O)(=O)N(CC2CC2)C[C@@H](O)[C@H](Cc2ccccc2)NC(=O)[C@@H]2CN(c3cccc(F)c3)C(=O)O2)c1` [36b, (5S)—N-[(1S,2R)-1-Benzyl-3-[(cyclopropylmethyl)[(3-methoxyphenyl)sulfonyl]amino]-2-hydroxypropyl]-3-(3-fluorophenyl)-2-oxo-oxazolidine-S-carboxamide], the Ki turned out to be 0.257 nM.

With `CC(C)CN(C[C@@H](O)[C@H](Cc1ccccc1)NC(=O)[C@@H]1CN(c2cccc(C(F)(F)F)c2)C(=O)O1)S(=O)(=O)c1ccc2c(c1)OCO2` [26d, (5S)—N-[(1S,2R)-3-[[(Benzo-[1,3]-dioxole-S-sulfonyl)](isobutyl)amino]-1-benzyl-2-hydroxypropyl]-2-oxo-3-[(3-trifluoromethyl)phenyl]oxazolidine-S-carboxamide], the Ki was found to be 0.016 nM.

With `CC(=O)c1ccc(N2C[C@@H](C(=O)N[C@@H](Cc3ccccc3)[C@H](O)CN(CC(C)C)S(=O)(=O)c3ccc4c(c3)OCO4)OC2=O)cc1` [26f, (5S)-3-(4-Acetylphenyl)-N-[(1S,2R)-3-[[(benzo-[1,3]-dioxole-S-sulfonyl)](isobutyl)-amino]-1-benzyl-2-hydroxypropyl]-2-oxo-oxazolidine-S-carboxamide], the Ki turned out to be 0.016 nM.

`COc1ccc(S(=O)(=O)N(CC(C)C)C[C@@H](O)[C@H](Cc2ccccc2)NC(=O)[C@@H]2CN(c3ccc(C(C)=O)cc3)C(=O)O2)cc1F` [27f, (S)-3-(4-Acetylphenyl)-N-[(1S,2R)-1-Benzyl-3-[[(3-fluoro-4-methoxyphenyl)-sulfonyl](isobutyl)amino]-2-hydroxypropyl]-2-oxo-oxazolidine-S-carboxamide]: the Ki was 0.08 nM.

As for `COc1ccc(S(=O)(=O)N(CC(C)C)C[C@@H](O)[C@H](Cc2ccccc2)NC(=O)[C@@H]2CN(c3cccc(C(F)(F)F)c3)C(=O)O2)cc1F` [27d, (5S)—N-[(1S,2R)-1-Benzyl-3-[[(3-fluoro-4-methoxyphenyl)sulfonyl](isobutyl)amino]-2-hydroxypropyl]-2-oxo-3-[(3-trifluoromethyl)phenyl)oxazolidine-S-carboxamide], the Ki stood at 0.072 nM.

For the molecule `CC(C)CN(C[C@@H](O)[C@H](Cc1ccccc1)NC(=O)[C@@H]1CN(c2cccc(C(F)(F)F)c2)C(=O)O1)S(=O)(=O)c1ccc(N)cc1` [25d, (5S)—N-[(1S,2R)-3-[[(4-Aminophenyl)sulfonyl](isobutyl)amino]-1-benzyl-2-hydroxypropyl]-2-oxo-3-[(3-trifluoromethyl)phenyl]oxazolidine-S-carboxamide], the Ki is 0.042 nM.

Staying with this test, now noted: wild type HIV-1 protease, qualitative statement.
Consider `COc1cccc(S(=O)(=O)N(CC(C)C)C[C@@H](O)[C@H](Cc2ccccc2)NC(=O)[C@@H]2CN(c3ccc(C(C)=O)cc3)C(=O)O2)c1` [29f, (5S)-3-(4-Acetylphenyl)-N-[(1S,2R)-1-benzyl-2-hydroxy-3-[isobutyl[(3-methoxyphenyl)-sulfonyl]amino]propyl]-2-oxo-oxazolidine-S-carboxamide], for which the “inhibitory activity against wild type HIV-1 protease (in words)” value (from here on “inhibitory activity”) is “significant loss of protease inhibitory activity”.

Take `CC(C)CN(C[C@@H](O)[C@H](Cc1ccccc1)NC(=O)[C@@H]1CN(c2ccc(F)c(F)c2)C(=O)O1)S(=O)(=O)c1ccc(N)cc1` [25c, (5S)—N-[(1S,2R)-3-[[(4-Aminophenyl)sulfonyl](isobutyl)amino]-1-benzyl-2-hydroxypropyl]-3-(3,4-difluorophenyl)-2-oxo-oxazolidine-S-carboxamide]: the “inhibitory activity” value was “relatively small improvement in activities compared to 25a”.

Turning to `COc1cccc(S(=O)(=O)N(CC(C)C)C[C@@H](O)[C@H](Cc2ccccc2)NC(=O)[C@@H]2CN(c3ccccc3)C(=O)O2)c1` [29a, (5S)—N-[(1S,2R)-1-Benzyl-2-hydroxy-3-[isobutyl[(3-methoxyphenyl)sulfonyl]amino]-propyl]-2-oxo-3-phenyloxazolidine-S-carboxamide], the “inhibitory activity” value is on record as “significant loss of protease inhibitory activity”.

As to `CC(=O)c1ccc(N2C[C@@H](C(=O)N[C@@H](Cc3ccccc3)[C@H](O)CN(CC(C)C)S(=O)(=O)c3ccc(N)cc3)OC2=O)cc1` [25f, (5S)-3-(4-Acetylphenyl)-N-[(1S,2R)-3-[[(4-aminophenyl)sulfonyl](isobutyl)amino]-1-benzyl-2-hydroxypropyl]-2-oxo-oxazolidine-S-carboxamide], the “inhibitory activity” value is recorded as “relatively small improvement in activities compared to 25a”.

For the molecule `CC(C)CN(C[C@@H](O)[C@H](Cc1ccccc1)NC(=O)O[C@H]1CCOC1)S(=O)(=O)c1ccc(N)cc1` [amprenavir, reference compound], the “inhibitory activity” value is reported as “Ki value for wild type is also relatively high”.

With `CC(C)CN(C[C@@H](O)[C@H](Cc1ccccc1)NC(=O)[C@@H]1CN(c2cccc(F)c2)C(=O)O1)S(=O)(=O)c1ccc(N)cc1` [25b, (5S)—N-[(1S,2R)-3-[[(4-Aminophenyl)sulfonyl](isobutyl)amino]-1-benzyl-2-hydroxypropyl]-3-(3-fluorophenyl)-2-oxo-oxazolidine-S-carboxamide], the “inhibitory activity” value is “relatively small improvement in activities compared to 25a”.

(Values after patent publication US20110178092A1, “HIV-1 Protease Inhibitors” (priority 2005, published 2011).)
